Measured values: PubChem BioAssay (NCI)
“And” between values parts separate entries of the source, which are not always exact repeats. Equal values may be shown once.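 Where inhibition never reached the appropriate level, the endpoint shown equals the highest concentration tested. Otherwise, values were interpolated linearly from a five-concentration, 48-hour dose response in 96-well plates. GI50 is the concentration that inhibits growth by half. The concentration for full growth arrest is given as TGI.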

Legend:
Assay in all cases: NCI anticancer screen, dose series, 48 h
[1] = test system: HOP-62 NSCLC
[2] = test system: HT29 colon
[3] = test system: MOLT-4 leukemia
[4] = test system: KM20L2 colon
[5] = test system: HS 578T breast
[6] = test system: HOP-92 NSCLC
[7] = test system: NCI-H226 lung
[8] = test system: UACC-257 melanoma
[9] = test system: DMS 273 small cell lung
[10] = test system: OVCAR-5 ovarian

SMILES | TGI [1] [µM] | TGI [2] [µM] | TGI [3] | TGI [4] | TGI [5] | TGI [6] | TGI [7] | TGI [8] | TGI [9] | TGI [10] [µM] | GI50 [1] | GI50 [2] | GI50 [3] [µM] | GI50 [4] [µM] | GI50 [5] | GI50 [6] [µM] | GI50 [8] [µM] | GI50 [9] [µM] | GI50 [7] [µM] | GI50 [10] [µM]
Nc1nc(N)c(CCCCc2ccc([N+](=O)[O-])cc2)c(N)n1 | > 100 | > 100 | > 100 µM | > 100 µM | > 100 µM | > 100 µM | > 100 µM | > 100 µM | > 100 µM | > 100 | – | – | – | – | – | – | – | – | – | –
N#Cc1sc2nc3c(c(-c4ccccc4)c2c1N)CCCC3 | – | > 100 | > 100 µM | – | – | > 100 µM | > 100 µM | > 100 µM | > 100 µM | > 100 | – | – | – | – | – | – | – | – | – | –
CCNC(=O)O/N=C1\CCC2[C@@H]3CC=C4C[C@@H](OC(=O)NCC)CC[C@]4(C)C3CC[C@]12C (some centres not stated) | > 100 | 13 | 3.2 µM | 12.7 µM | – | 13.3 µM | – | 3.33 µM | 3.54 µM | 17.1 | – | – | – | – | – | – | – | – | – | –
Nc1ncc(CN2CCCC2)c(-c2ccccc2O)n1 | > 750 | > 750 | > 750 µM | > 750 µM | – | > 750 µM | > 750 µM | > 750 µM | > 750 µM | > 750 | – | – | – | – | – | – | – | – | – | –
CC(=O)O[C@H]1CSC[C@@H](OC(C)=O)C1[N+](=O)[O-] (some centres not stated) | > 100 | > 100 | 78.7 µM | > 100 µM | – | 39.7 µM | > 100 µM | 52 µM | > 100 µM | > 100 | – | – | – | – | – | – | – | – | – | –
NC1(C(=O)O)CCC(C(=O)O)CC1 (configuration not stated) | > 100 | > 100 | > 100 µM | > 100 µM | – | > 100 µM | > 100 µM | > 100 µM | > 100 µM | > 100 | – | – | – | – | – | – | – | – | – | –
CSCSCC(CO)NC(=O)/C=C/c1c(C)[nH]c(=O)[nH]c1=O (configuration not stated) | – | > 100 | > 100 µM | > 100 µM | – | > 100 µM | > 100 µM | > 100 µM | > 100 µM | > 100 | – | – | – | – | – | – | – | – | – | –
CC(=O)OC1(C(C)=O)CC2(c3ccccc3)OC1(c1ccccc1)c1ccccc12 (configuration not stated) | 61.5 | > 100 | 40.1 µM | > 100 µM | – | > 100 µM | 43.2 µM | 25.1 µM | 22.2 µM | > 100 | – | – | – | – | – | – | – | – | – | –
C=C1C(C)C2C(Cc3ccccc3)NC(=O)C23C(OC(C)=O)C=CC(C)(O)C(=O)C(C)C/C=C/C3C1O (configuration not stated) | – | > 278 | 78.3 µM and > 500 µM | 99.2 µM and > 500 µM | 2.07 µM and 1.18 µM | 2.45 µM and 1.21 µM | 51.4 µM and > 500 µM | 45.4 µM and 335 µM | 73.9 µM and > 500 µM | > 500 | 0.0431 µM and 0.106 µM | 0.0505 µM and 0.176 µM and 0.0663 µM | 17.9 | 0.275 | 0.0185 µM and 0.0551 µM | 0.171 | 26.3 | 0.05 | – | –
O=C(/C=C/c1ccco1)Nc1ncc(Cc2cc(Cl)ccc2Cl)s1 | > 76.5 | > 100 | > 100 µM | – | > 100 µM | > 100 µM | > 100 µM | > 100 µM | – | > 100 | 0.0645 µM | 0.038 µM | 0.061 | – | 0.0427 µM | 6.91 | > 100 | – | 0.581 | 0.257
CCOC(=O)C(Oc1ccc(OC)c2c1C(=O)CCC2)c1ccccc1 (configuration not stated) | > 100 | > 100 | > 100 µM | > 100 µM | – | – | – | > 100 µM | > 100 µM | > 100 | – | – | – | – | – | – | – | – | – | –
CN(C(=O)C12C3C4C1C1C2C3C41C#N)C(C)(C)C (configuration not stated) | > 100 | > 100 | > 100 µM | > 100 µM | – | – | > 100 µM | > 100 µM | > 100 µM | > 100 | – | – | – | – | – | – | – | – | – | –
CSc1ccc(-c2cn3ccsc3n2)cc1 | > 100 | > 100 | > 100 µM | – | > 65.7 µM | > 78.9 µM | 98.1 µM | > 100 µM | – | > 100 | 34.6 µM | 33.3 µM | 5.48 | – | 9.5 µM | 6.81 | 28.7 | – | 24.8 | 38.9
COc1ccc(/C(=C(\c2ccccc2)[N+](=O)[O-])c2ccc(OCCN3CCCC3)cc2)cc1 | 4.94 | 1.82 | 10.5 µM | – | 10.9 µM | 12 µM | 18.2 µM | 4.64 µM | – | 22.9 | 1.89 µM | 0.301 µM | 2.65 | – | 2.32 µM | 2.25 | 2.04 | – | 4.37 | 8.75
COc1cc([C@H]2OC[C@@H]3C(c4cc(OC)c5c(c4)OCO5)OC[C@H]23)cc(OC)c1OC (some centres not stated) | > 100 | > 100 | > 100 µM | – | > 100 µM | > 100 µM | > 100 µM | > 100 µM | – | > 100 | – | – | – | – | – | – | – | – | – | –
